# Results taken from ChEMBL document CHEMBL1782045, “Discovery, synthesis, and investigation of the antitumor activity of novel piperazinylpyrimidine derivatives” (Eur J Med Chem, 2011).
# Key:
# [1] = biological target: T1, Hepatocyte growth factor receptor (Homo sapiens, UniProt P08581)
# Description: Binding affinity to human phosphorylated c-MET
# [2] = biological target: T1, Hepatocyte growth factor receptor; remark: listed apart in the source
# Description: Binding affinity to human unphosphorylated c-MET
# T1 sequence (P08581 whole entry): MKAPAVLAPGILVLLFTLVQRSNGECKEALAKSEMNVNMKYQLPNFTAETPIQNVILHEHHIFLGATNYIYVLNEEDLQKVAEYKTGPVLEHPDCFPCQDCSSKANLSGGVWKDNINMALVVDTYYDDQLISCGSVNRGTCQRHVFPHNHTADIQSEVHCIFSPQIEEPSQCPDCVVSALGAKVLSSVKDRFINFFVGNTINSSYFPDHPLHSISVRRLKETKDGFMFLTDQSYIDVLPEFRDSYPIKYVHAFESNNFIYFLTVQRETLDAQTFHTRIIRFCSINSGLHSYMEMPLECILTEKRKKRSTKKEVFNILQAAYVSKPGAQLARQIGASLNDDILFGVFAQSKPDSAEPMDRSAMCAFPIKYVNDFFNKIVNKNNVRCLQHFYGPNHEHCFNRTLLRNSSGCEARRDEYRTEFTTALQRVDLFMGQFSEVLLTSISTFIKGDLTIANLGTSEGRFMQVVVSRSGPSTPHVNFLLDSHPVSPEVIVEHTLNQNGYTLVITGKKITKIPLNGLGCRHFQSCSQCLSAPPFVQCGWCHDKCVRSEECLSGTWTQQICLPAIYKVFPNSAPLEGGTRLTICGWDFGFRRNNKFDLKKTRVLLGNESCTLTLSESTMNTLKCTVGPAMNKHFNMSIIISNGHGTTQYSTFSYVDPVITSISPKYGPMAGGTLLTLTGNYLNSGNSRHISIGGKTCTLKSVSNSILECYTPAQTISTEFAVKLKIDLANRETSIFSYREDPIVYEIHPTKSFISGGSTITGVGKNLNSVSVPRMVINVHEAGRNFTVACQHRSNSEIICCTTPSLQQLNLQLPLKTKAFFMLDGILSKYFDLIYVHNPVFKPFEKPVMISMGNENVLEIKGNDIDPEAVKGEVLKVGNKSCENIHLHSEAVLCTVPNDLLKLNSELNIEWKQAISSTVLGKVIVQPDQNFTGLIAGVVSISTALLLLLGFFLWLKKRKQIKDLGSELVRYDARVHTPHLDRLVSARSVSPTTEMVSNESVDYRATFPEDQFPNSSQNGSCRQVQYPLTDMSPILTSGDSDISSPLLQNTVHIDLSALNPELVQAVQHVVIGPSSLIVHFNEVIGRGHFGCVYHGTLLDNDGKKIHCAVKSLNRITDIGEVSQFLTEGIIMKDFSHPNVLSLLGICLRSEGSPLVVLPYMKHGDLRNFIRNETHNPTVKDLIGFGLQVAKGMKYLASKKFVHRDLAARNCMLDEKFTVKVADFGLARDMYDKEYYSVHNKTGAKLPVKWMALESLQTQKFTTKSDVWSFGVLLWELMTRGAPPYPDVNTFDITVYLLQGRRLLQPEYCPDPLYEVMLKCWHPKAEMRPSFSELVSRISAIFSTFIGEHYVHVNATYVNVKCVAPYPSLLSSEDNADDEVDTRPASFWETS
structure (smiles),measurement,setting,value
CN(C[C@@H]1COCCO1)S(=O)(=O)Nc1ccc2ccc3ncc(-c4cnn(C)c4)cc3c(=O)c2c1 [MK-2461],Kd,[1],4.4 nM
same,Kd,[2],27.2 nM
